Values of other authors as cited in patent US20210113495A1, “METHOD OF TREATING EPILEPSY OR EPILEPTIC ENCEPHALOPATHY WITH FENFLURAMINE IN PATIENTS WITHOUT PULMONARY HYPERTENSION” (ZOGENIX INTERNATIONAL LIMITED, priority 2018, published 2021).

Legend:
[1] = test system: children with refractory epilepsy; conditions: dose of 0.5 to 1 mg/kg/day
[2] = test system: child suffering pattern sensitivity-induced seizures; conditions: one child, seizures resistant to anticonvulsive treatment
[3] = test system: self-induced photosensitive seizures; conditions: four cases
patients with PH [4] = test system: patients with PH
[5] = test system: pulmonary arterial hypertension patients; conditions: PAH patients who had started treatment with bosentan
patients with PH [6] = conditions: short-term infusion
[7] = initial right heart catheterization, resting, 15 women who had used fenfluramine, mean (SD)

CCNC(C)Cc1cccc(C(F)(F)F)c1 (racemic) [fenfluramine, (RS)—N-ethyl-1-[3-(trifluoromethyl)phenyl]propan-2-amine]
number of seizures experienced by the patients [1]: reduction in the number of seizures
effect on self-induced seizures [2]: successfully terminated these self-induced seizures
response of self-induced photosensitive seizures [3]: responded to treatment with fenfluramine
users with close temporal relation between fenfluramine use and development of exertional dyspnoea (patients with PH [4]; 10 of 15 women with PH who had used fenfluramine): 67%
overall survival, fenfluramine users vs controls (patients with PH [4]; PH patients, transplant recipients excluded): no significant difference in overall survival
pulmonary artery pressure (PAP) (patients with PH [4]; [7]): 57 (9) mm Hg
pulmonary vascular resistance (PVR) (patients with PH [4]; [7]): 29 (10) U/m^2

COc1ccccc1Oc1c(NS(=O)(=O)c2ccc(C(C)(C)C)cc2)nc(-c2ncccn2)nc1OCCO [bosentan]
patients alive at 2 years [5]: 89%

CCCCC[C@H](O)/C=C/[C@@H]1[C@H]2C/C(=C/CCCC(=O)O)O[C@H]2C[C@H]1O [epoprostenol]
mean fall in PVR compared with control values (patients with PH [6]; 10 responding patients, mean (SD)): 24 (15%)
vasodilator response (patients with PH [6]; 15 women with PH who had used fenfluramine): significant vasodilator response in 10 patients
